Patent US20220280581A1, “BENEFICIAL BACTERIA AND SECRETORY IMMUNOGLOBULIN A” (priority 2019, published 2022)

Test: Protection from simulated gastric digestion in vitro (pepsin, pancreatin): viability by CFU plating and live/dead flow cytometry
Details: for slope of regression plot of viability with SIgA association: post-digestion; for Slope (CFU/% SIgA): regression of viable CFU post-digestion on SIgA association
Method: Flow cytometry and immunofluorescence: To measure binding cells were fixed using 4% w/v paraformaldehyde for 30 min, washed with PBS, then incubated with 1% bovine serum albumin (BSA) blocking buffer for 1 h. Cells were stained with 1/100 dilution SYTOT™ 9 (S34854, ThermoFisher) for live cells and goat anti-human IgA conjugated to Alexa 647 fluorophore using 1/50 dilution in 1% BSA (ab96998, Abcam). For flow cytometry, all samples were acquired and analyzed on a FACScan flow cytometer (BD Biosciences, Mountain View, Calif.) using the CellQuest software program. For live/dead analyses following in vitro digestion, cells were stained with SYTOT™ 9 (1/100 dilution) for live cells and propidium iodine (1/1000 dilution) for dead cells or cells with compromised membranes.
Protection from digestion using an in vitro model. To determine the extent to which the SIgA-glycan-mediated-bacterial complexes that included the Ig-bound secretory component (SC) where able to protect bacteria and SIgA from proteolytic degradation, an in vitro model was used. Simulated gastric digestion was performed by resuspending bacteria in 200 ul of 0.1% porcine pepsin (Sigma—Aldrich, St. Louis, Mo.) in PBS at pH 4. Samples were placed in an incubating shaker (New Brunswick Scientific, Edison, N.J.) at 140 rpm at 37° C. for 15 min. Cells were then pelleted and resuspended in 200 ul of 0.04% pancreatin (Sigma— Aldrich) in PBS pH 7, and the samples placed in the incubator shaker at 140 rpm at 37° C. for 5 min. Bacteria were pelleted and washed twice with PBS to remove residual enzymes, then evaluated for viability through CFU serial dilution and spot plating, and with live/dead flow cytometry analysis.

Bifidobacterium longum ssp. infantis ATCC 15697
viable bacteria post-digestion (grown on LNnT, 1000 μg SIgA/1e7 CFU): 1.3e5 CFU
viable bacteria post-digestion (grown on LNnT, no SIgA): 1.2e4 CFU
viable bacteria post-digestion (grown on glucose, 1000 μg SIgA/1e7 CFU): 8.9e5 CFU
viable bacteria post-digestion (grown on glucose, no SIgA): 1e5 CFU
slope of regression plot of viability with SIgA association (grown on LNnT): 1.2e3 CFU per % population SIgA association
slope of regression plot of viability with SIgA association (grown on glucose): 8.2e4 CFU per % population SIgA association
Slope (CFU/% SIgA) (substrate 2′FL): 410.1 CFU/% SIgA
Slope (CFU/% SIgA) (substrate LNnT): 1214 CFU/% SIgA
Slope (CFU/% SIgA) (substrate glucose): 8970 CFU/% SIgA
Slope (CFU/% SIgA) (substrate lactose): 76377 CFU/% SIgA
